# According to the supplement of paper PMC13380429:
# Key:
# Conditions in all cases: 72 h
# [1] = tested on: U2OS; assay: cell viability relative to DMSO; higher = less toxic
# [2] = tested on: Caco-2; assay: as above
# [3] = tested on: HepG2; assay: as above
# [4] = tested on: Calu-3; assay: as above
# [5] = tested on: Vero E6; assay: as above
# [6] = tested on: U2OS; assay: drug sensitivity score (DSS) for viability; higher = more toxic; extreme values may be limits of the assay
# [7] = tested on: Caco-2; assay: as above
# [8] = tested on: HepG2; assay: as above
# [9] = tested on: Calu-3; assay: as above
# [10] = tested on: Vero E6; assay: as above
# [11] = tested on: U2OS; assay: relative viability EC50 (midpoint between 100% and the lowest measured viability); higher = less toxic
# [12] = tested on: Caco-2; assay: as above
# [13] = tested on: HepG2; assay: as above
# [14] = tested on: Calu-3; assay: as above
# [15] = tested on: Vero E6; assay: as above
Compound,cell viability ([1]; 1 nM),cell viability ([1]; 10 nM),cell viability ([1]; 100 nM),cell viability ([1]; 1000 nM),cell viability ([1]; 10000 nM),cell viability ([2]; 1 nM),cell viability ([2]; 10 nM),cell viability ([2]; 100 nM),cell viability ([2]; 1000 nM),cell viability ([2]; 10000 nM),cell viability ([3]; 1 nM),cell viability ([3]; 10 nM),cell viability ([3]; 100 nM),cell viability ([3]; 1000 nM),cell viability ([3]; 10000 nM),cell viability ([4]; 1 nM),cell viability ([4]; 10 nM),cell viability ([4]; 100 nM),cell viability ([4]; 1000 nM),cell viability ([4]; 10000 nM),cell viability ([5]; 1 nM),cell viability ([5]; 10 nM),cell viability ([5]; 100 nM),cell viability ([5]; 1000 nM),cell viability ([5]; 10000 nM),drug sensitivity score [6],drug sensitivity score [7],drug sensitivity score [8],drug sensitivity score [9],drug sensitivity score [10],relative viability EC50 [11],relative viability EC50 [12],relative viability EC50 [13],relative viability EC50 [14],relative viability EC50 [15]
N=C(N)Nc1ccc(C(=O)Oc2ccc3cc(C(=N)N)ccc3c2)cc1 [nafamostat],102%,99.4%,102%,97.6%,102%,101%,100%,98.8%,92.4%,107%,96.5%,108%,104%,108%,77.1%,98.3%,103%,107%,103%,99.4%,99.7%,103%,104%,102%,97%,0,0,0.5,0,0,> 10 µM,> 10 µM,> 10 µM,> 10 µM,> 10 µM
O=C(O)c1cccnc1 [niacin],93.8%,98.2%,95.3%,97.1%,102%,91.6%,96.7%,94.2%,103%,103%,113%,105%,114%,97.9%,106%,86.8%,103%,98.9%,109%,99.2%,99.4%,98.7%,96.3%,91.1%,101%,0,0,0,0,0,> 10 µM,> 10 µM,> 10 µM,> 10 µM,> 10 µM
Cc1onc(-c2ccccc2)c1C(=O)N[C@@H]1C(=O)N2[C@@H]1SC(C)(C)[C@@H]2C(=O)O [oxacillin],100%,98.7%,98%,98.9%,108%,92.9%,93.3%,98.1%,85.2%,116%,89.9%,102%,91.3%,114%,108%,92.6%,104%,102%,99.1%,96.2%,99.4%,87.2%,102%,93.9%,94%,0,0,0,0,0,> 10 µM,> 10 µM,> 10 µM,> 10 µM,> 10 µM
